Assay [1] concerns the target T1, human serotonin 5-HT6 receptor (Homo sapiens, UniProt P50406).
T1 construct: made in house; host or cells: Sf21 insect cells (pBacPAK8 baculovirus vector)
Put plainly: [3H]LSD binding at cloned 5-HT6 receptors. To be noted: for IC50: [3H]LSD 1.87 nM, cloned receptor membranes, 37° C., 60 min, read-out: IC50; for inhibition at 10 µM: read-out: Binding affinity (Inhibition rate % at 10 μM) 5HT6.

The target of a further assay is D1 (Homo sapiens, UniProt P21728). The assay is described as follows: Radioligand binding for selectivity, D1. To be noted: read-out: Binding affinity (Inhibition rate % at 10 μM) D1.
Another assay deals with T2, hD2L receptor (Homo sapiens, UniProt P14416).
T2 construct: purchased BioSignal Packard Inc., Montreal, Canada
The assay is described as follows: Radioligand binding, dopamine D2 ([3H]spiperone). To be noted: read-out: Binding affinity (Inhibition rate % at 10 μM) D2. The method, then: (§1) The radioligands used were [^3H] spiperone (for hD2L and hD3 receptors, 1 nM) and [^3H] YM-09151-2 (for hD4.2 receptor, 0.06 nM). Radioligand bindings were performed by the protocols provided by the supplier of receptor membranes (BioSignal Packard Inc., Montreal, Canada). Briefly, the buffer used in D2 or D3 receptor binding assay was 50 mM Tris-HCl (pH 7.4), 10 mM MgCl2, 1 mM EDTA, or 50 mM Tris-HCl (pH 7.4), 5 mM MgCl2, 5 mM EDTA, 5 mM KCl, 1.5 mM CaCl2, 120 mM NaCl, respectively. In [^3H] YM-09151-2 receptor binding assays, the buffer containing 50 mM Tris-HCl (pH 7.4), 5 mM MgCl2, 5 mM EDTA, 5 mM KCl and 1.5 mM CaCl2 was used. Nonspecific binding was determined with haloperidol (10 μM) or clozapine (10 μM) for D2 and D3, and D4 receptors, respectively. Competition binding studies were carried out with 7-8 concentrations of the test compound run in duplicate tubes, and isotherms from three assays were calculated by computerized nonlinear regression analysis (GraphPad Prism Program, San Diego, […]) to yield median inhibitory concentration (IC50) values.

The next assay addresses T3, hD3 receptor (Homo sapiens, UniProt P35462).
T3 construct: purchased BioSignal Packard Inc., Montreal, Canada
Put plainly: Radioligand binding, dopamine D3 ([3H]spiperone). The note with it: read-out: Binding affinity (Inhibition rate % at 10 μM) D3. The method, then: as §1

The next assay addresses T4, hD4.2 receptor (Homo sapiens, UniProt P21917, DEL265-296).
T4 construct: purchased BioSignal Packard Inc., Montreal, Canada
T4 sequence (P21917 with tags, fused parts or gaps DEL265-296): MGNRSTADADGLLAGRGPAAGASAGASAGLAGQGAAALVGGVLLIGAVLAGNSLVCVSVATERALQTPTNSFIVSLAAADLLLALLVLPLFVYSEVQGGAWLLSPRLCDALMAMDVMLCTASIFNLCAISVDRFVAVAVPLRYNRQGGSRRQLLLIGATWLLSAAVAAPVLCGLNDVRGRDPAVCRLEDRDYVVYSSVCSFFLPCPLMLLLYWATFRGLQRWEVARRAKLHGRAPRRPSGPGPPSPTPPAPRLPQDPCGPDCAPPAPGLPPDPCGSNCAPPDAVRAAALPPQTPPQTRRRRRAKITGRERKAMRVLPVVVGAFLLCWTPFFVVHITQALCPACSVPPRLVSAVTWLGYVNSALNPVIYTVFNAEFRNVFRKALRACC
Put plainly: Radioligand binding, dopamine D4 ([3H]YM-09151-2). The note with it: read-out: Binding affinity (Inhibition rate % at 10 μM) D4. As for the experimental part: as §1

In the next assay the target is T5, 5-HT1a (Homo sapiens, UniProt P08908).
T5 construct: purchased Euroscreen/BioSignal Packard Inc
T5 sequence (P08908 1-422): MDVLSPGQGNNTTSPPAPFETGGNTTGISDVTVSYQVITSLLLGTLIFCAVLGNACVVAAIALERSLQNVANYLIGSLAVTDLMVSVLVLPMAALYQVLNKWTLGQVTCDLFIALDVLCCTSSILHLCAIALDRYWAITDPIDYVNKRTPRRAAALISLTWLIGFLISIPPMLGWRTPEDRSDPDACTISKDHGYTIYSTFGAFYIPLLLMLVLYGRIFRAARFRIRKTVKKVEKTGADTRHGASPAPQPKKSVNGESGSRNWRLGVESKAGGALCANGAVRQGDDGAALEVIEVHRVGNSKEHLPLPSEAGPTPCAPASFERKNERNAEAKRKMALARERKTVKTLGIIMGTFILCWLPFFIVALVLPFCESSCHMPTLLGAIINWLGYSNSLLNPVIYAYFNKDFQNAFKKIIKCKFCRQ
Put plainly: Radioligand binding, 5-HT1a ([3H]8-OH-DPAT). To be noted: read-out: Binding affinity (Inhibition rate % at 10 μM) 5HT1a. The method, then: (§2) Radioligand bindings were performed according to the test method provided by the supplier of receptor membrane (Euroscreen/BioSignal Packard Inc.).

A further assay has as its target T6, 5-HT2a (Homo sapiens, UniProt P28223).
T6 construct: purchased Euroscreen/BioSignal Packard Inc
Put plainly: Radioligand binding, 5-HT2a ([3H]Ketanserin). The note with it: read-out: Binding affinity (Inhibition rate % at 10 μM) 5HT2a. As for the experimental part: as §2

In the next assay the target is T7, 5-HT2c (Homo sapiens, UniProt P28335).
T7 construct: purchased Euroscreen/BioSignal Packard Inc
T7 sequence (P28335 33-458): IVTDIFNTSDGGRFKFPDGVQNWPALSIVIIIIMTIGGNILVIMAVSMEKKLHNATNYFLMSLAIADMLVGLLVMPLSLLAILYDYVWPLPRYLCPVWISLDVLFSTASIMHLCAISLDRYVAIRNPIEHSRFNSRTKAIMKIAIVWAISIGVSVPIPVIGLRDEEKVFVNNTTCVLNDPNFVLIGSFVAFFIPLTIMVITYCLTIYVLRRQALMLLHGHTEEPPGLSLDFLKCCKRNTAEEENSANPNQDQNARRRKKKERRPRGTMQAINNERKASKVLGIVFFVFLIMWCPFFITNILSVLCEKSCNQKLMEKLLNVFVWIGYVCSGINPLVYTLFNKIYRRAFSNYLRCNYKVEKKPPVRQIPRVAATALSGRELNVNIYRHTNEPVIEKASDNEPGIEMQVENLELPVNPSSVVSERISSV
The assay is described as follows: Radioligand binding, 5-HT2c ([3H]Mesulergine). To be noted: read-out: Binding affinity (Inhibition rate % at 10 μM) 5HT2c. The method, then: as §2

In the next assay the target is T8, 5-HT7 (Homo sapiens, UniProt P34969).
T8 construct: purchased Euroscreen/BioSignal Packard Inc
The assay is described as follows: Radioligand binding, 5-HT7 ([3H]LSD). To be noted: read-out: Binding affinity (Inhibition rate % at 10 μM) 5HT7. The method, then: as §2

T8 sequence (P34969 whole entry): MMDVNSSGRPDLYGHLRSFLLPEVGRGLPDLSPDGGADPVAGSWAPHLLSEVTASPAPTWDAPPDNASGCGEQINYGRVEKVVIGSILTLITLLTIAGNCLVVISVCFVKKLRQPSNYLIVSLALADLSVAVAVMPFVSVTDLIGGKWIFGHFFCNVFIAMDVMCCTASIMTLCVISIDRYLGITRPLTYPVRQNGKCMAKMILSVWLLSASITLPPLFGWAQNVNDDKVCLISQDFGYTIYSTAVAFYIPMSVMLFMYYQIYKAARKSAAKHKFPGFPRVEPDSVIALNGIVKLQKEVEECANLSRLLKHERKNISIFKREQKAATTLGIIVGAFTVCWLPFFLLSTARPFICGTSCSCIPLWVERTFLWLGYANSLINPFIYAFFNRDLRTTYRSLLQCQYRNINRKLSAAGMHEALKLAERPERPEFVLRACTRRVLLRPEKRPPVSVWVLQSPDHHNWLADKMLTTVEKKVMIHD
D1, sequence (P21728 whole entry): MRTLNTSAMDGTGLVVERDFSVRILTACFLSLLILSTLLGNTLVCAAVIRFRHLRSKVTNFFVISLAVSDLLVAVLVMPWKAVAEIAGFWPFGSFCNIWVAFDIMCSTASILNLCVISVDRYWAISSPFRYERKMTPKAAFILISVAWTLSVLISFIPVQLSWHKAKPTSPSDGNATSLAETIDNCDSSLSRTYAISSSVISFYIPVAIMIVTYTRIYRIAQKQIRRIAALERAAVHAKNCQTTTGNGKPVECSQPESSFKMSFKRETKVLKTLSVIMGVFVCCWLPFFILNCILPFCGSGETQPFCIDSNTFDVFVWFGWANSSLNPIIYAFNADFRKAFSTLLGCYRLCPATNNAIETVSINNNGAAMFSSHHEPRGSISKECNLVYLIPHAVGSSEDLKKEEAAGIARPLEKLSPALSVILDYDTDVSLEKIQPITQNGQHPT
T3 sequence (P35462 whole entry): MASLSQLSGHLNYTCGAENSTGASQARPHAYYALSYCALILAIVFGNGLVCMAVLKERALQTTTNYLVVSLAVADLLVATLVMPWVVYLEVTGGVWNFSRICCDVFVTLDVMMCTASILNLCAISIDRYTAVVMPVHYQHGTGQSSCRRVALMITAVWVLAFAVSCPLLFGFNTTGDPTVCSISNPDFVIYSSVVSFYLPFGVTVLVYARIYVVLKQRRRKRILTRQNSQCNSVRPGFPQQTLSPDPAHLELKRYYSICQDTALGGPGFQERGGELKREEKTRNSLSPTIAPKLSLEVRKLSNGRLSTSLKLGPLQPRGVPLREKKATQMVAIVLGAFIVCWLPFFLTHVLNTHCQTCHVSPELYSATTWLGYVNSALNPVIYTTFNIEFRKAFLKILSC
T2 sequence (P14416 whole entry): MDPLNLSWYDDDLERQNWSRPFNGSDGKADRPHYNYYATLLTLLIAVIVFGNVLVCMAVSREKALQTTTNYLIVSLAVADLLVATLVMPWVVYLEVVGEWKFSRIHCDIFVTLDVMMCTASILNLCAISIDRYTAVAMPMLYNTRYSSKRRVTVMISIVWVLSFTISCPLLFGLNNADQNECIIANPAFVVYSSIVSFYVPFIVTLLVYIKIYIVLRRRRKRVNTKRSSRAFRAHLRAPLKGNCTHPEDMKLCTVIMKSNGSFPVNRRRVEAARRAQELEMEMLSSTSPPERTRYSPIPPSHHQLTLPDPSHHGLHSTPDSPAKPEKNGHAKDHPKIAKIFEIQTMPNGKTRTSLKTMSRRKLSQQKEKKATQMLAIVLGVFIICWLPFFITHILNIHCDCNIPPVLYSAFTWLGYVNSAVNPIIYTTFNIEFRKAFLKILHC
T6 sequence (P28223 whole entry): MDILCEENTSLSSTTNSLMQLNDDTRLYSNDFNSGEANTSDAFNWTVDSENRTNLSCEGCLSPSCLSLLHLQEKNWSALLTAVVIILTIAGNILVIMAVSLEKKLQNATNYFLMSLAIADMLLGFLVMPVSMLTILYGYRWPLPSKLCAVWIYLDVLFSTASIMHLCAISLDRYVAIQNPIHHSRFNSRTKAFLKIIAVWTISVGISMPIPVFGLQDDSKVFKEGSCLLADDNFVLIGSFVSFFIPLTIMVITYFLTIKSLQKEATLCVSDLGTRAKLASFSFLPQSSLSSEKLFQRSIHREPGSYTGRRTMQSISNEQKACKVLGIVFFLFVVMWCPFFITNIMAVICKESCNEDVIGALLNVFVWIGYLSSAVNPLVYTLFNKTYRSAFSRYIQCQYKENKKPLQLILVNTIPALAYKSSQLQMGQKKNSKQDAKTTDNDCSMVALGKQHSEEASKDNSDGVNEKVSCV
T1 sequence (P50406 whole entry): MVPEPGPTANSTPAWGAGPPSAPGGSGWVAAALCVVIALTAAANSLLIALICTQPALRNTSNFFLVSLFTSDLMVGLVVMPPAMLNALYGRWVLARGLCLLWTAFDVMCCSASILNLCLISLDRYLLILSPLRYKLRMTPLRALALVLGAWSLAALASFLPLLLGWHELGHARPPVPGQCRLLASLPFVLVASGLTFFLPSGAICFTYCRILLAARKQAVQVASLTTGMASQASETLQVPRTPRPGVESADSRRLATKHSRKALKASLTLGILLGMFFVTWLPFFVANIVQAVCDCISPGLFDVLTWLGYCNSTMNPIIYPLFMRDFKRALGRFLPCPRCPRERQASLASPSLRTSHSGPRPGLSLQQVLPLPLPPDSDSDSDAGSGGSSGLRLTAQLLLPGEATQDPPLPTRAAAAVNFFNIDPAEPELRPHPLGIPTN

With `COc1ccc(C2(C)C(=O)Nc3c(Br)cc(Br)cc3C2=O)cc1[N+](=O)[O-]` (stereo not drawn) [Example 28, 6,8-dibromo-3-(4-methoxy-3-nitro-phenyl)-3-methyl-1H-quinoline-2,4-dione], the IC50 in assay [1] was 1200 nM. In addition, the inhibition at 10 µM in [1] came to 73.2%; on D1 it was 46.9%; on hD2L receptor, 9.4%; at hD3 receptor, 40.9%; on hD4.2 receptor, 2.3%; on 5-HT1a it was 60.9%. The inhibition at 10 µM at 5-HT2a was found to be 9%; on 5-HT2c, 13.7%; at 5-HT7 it was 10.2%.

For `CC1(c2ccc(Br)cc2Br)C(=O)Nc2cc(Cl)ccc2C1=O` (stereo not drawn) [Example 45, 7-chloro-3-(2,4-dibromo-phenyl)-3-methyl-1H-quinoline-2,4-dione], the 50% inhibitory concentration (IC50) in assay [1] stood at 2220 nM. The inhibition at 10 µM in assay [1] is 66%; on D1 it was 42.3%; at hD2L receptor it was 13%; at hD3 receptor, 5.6%; at hD4.2 receptor, 0%; on 5-HT1a it was 60.3%. The inhibition at 10 µM at 5-HT2a turned out to be 23%; at 5-HT2c, 31.6%; at 5-HT7 it was 29.5%.

As for `CC1(c2ccc([N+](=O)[O-])cc2)C(=O)Nc2cc(Cl)cc(Cl)c2C1=O` (stereo not drawn) [Example 14, 5,7-dichloro-3-methyl-3-(4-nitro-phenyl)-1H-quinoline-2,4-dione], in [1], the IC50 was 870 nM. The inhibition at 10 µM in assay [1] is 71.2%; at D1 it was 6.5%; at hD2L receptor, 26.5%; at hD3 receptor, 30.7%; on hD4.2 receptor, 0%; on 5-HT1a, 60.5%. Besides, the inhibition at 10 µM on 5-HT2a was 54.1%; on 5-HT2c, 3.8%; at 5-HT7, 10.8%.

For `COc1cc(Cl)c2c(c1)NC(=O)C(C)(c1ccccc1)C2=O` (stereo not drawn) [Example 5, 5-chloro-7-methoxy-3-methyl-3-phenyl-1H-quinoline-2,4-dione], the concentration for half-maximal inhibition (IC50) in [1] came to 560 nM. The inhibition at 10 µM came out at 73.5% in assay [1]; 10.3% at D1; 20.5% at hD2L receptor; 10.1% on hD3 receptor; 0% at hD4.2 receptor; 18.9% at 5-HT1a. Also, the inhibition at 10 µM at 5-HT2a amounted to 26.8%; at 5-HT2c, 20.5%; on 5-HT7, 9.4%.

For `CC1(c2ccc(Br)cc2Br)C(=O)Nc2cc(Cl)cc(Cl)c2C1=O` (stereo not drawn) [Example 27, 3-(2,4-dibromo-phenyl)-5,7-dichloro-3-methyl-1H-quinoline-2,4-dione], the IC50 in assay [1] came to 349 nM. Further, the inhibition at 10 µM in [1] stood at 71.1%; on D1 it was 25.8%; at hD2L receptor it was 10.2%; on hD3 receptor, 15.6%; at hD4.2 receptor it was 1.6%; on 5-HT1a, 46%. Further, the inhibition at 10 µM at 5-HT2a was 30.8%; on 5-HT2c it was 28.1%; on 5-HT7, 12.3%.

`CN1CCN(c2cc(Cl)c3c(c2)NC(=O)C(C)(c2ccc(O)cc2)C3=O)CC1` (stereo not drawn) [Example 47, 5-chloro-3-(4-hydroxy-phenyl)-3-methyl-7-(4-methyl-piperazine-1-yl)-1H-quinoline-2,4-dione]: in assay [1], the IC50 amounted to 1060 nM. In addition, the inhibition at 10 µM in assay [1] came out at 71.9%; on D1, 20.9%; on hD2L receptor, 27.2%; at hD3 receptor it was 14.2%; on hD4.2 receptor, 12.8%; at 5-HT1a, 27.1%. The inhibition at 10 µM at 5-HT2a is 42.8%; at 5-HT2c, 12.4%; on 5-HT7, 16.3%.

For the compound `CC1(c2ccc(O)c(N)c2)C(=O)Nc2c(Br)cc(Br)cc2C1=O` (stereo not drawn) [Example 30, 3-(3-amino-4-hydroxy-phenyl)-6,8-dibromo-3-methyl-1H-quinoline-2,4-dione], the 50% inhibitory concentration (IC50) in assay [1] was found to be 1730 nM. In addition, the inhibition at 10 µM in assay [1] amounted to 69.2%; on D1 it was 18.6%; at hD2L receptor, 18.5%; at hD3 receptor it was 25.1%; at hD4.2 receptor it was 0.9%; at 5-HT1a, 0%. Also, the inhibition at 10 µM worked out at 35.1% on 5-HT2a, 5.4% on 5-HT2c and 4.9% on 5-HT7.

As to `COc1ccc(C2(C)C(=O)Nc3ccccc3C2=O)cc1` (stereo not drawn) [Example 33, 3-(4-methoxy-phenyl)-3-methyl-1H-quinoline-2,4-dione], the half-inhibitory concentration (IC50) in assay [1] stood at 487 nM. Further, the inhibition at 10 µM in assay [1] turned out to be 72.4%; on D1, 29.5%; at hD2L receptor, 20.9%; at hD3 receptor, 13.1%; on hD4.2 receptor, 0%; on 5-HT1a it was 20.4%. The inhibition at 10 µM on 5-HT2a was 10.7%; on 5-HT2c, 13.5%; at 5-HT7 it was 6.6%.

Take `CC1(c2ccccc2)C(=O)Nc2c(Br)cc(Br)cc2C1=O` (stereo not drawn) [Example 10, 6,8-dibromo-3-methyl-3-phenyl-1H-quinoline-2,14-dione]: the IC50 in [1] worked out at 1330 nM. Moreover, the inhibition at 10 µM in assay [1] came out at 73.4%; at D1, 13.5%; on hD2L receptor it was 11.2%; at hD3 receptor it was 19.5%; on hD4.2 receptor, 0%; at 5-HT1a, 0%. For the same compound, the inhibition at 10 µM at 5-HT2a worked out at 29.5%; at 5-HT2c, 16.8%; on 5-HT7, 20.7%.

These data come from patent publication US7592457B2 (Korea Research Institute of Chemical Technology, priority 2004, dated 2009).
